Source: patent US9446093B2, “Injectable aqueous ophthalmic composition and method of use therefor” (Alcon Research Ltd., priority 2009, dated 2016)

Experiment: pKa, charge and solubility of the amine groups of the polymer

## Poly-L-lysine
  pKa value of the amine groups: approximately 10.5
